In patent US7989179B2, “LXR ligand testing method” (Daiichi Sankyo Company, Limited, priority 2005, dated 2011):

Assays:
[1] = target: T1, heterodimer comprising LXRα and RXRα (Homo sapiens, UniProt Q13133, A196R); assay: FRET assay of coactivator peptide binding to His-LXRα/FLAG-RXRα; format: biochemical
T1 construct: amino acid nos; made in house; host or cells: Escherichia coli BL21(DE3)
T1 sequence (Q13133 164-447 A196R): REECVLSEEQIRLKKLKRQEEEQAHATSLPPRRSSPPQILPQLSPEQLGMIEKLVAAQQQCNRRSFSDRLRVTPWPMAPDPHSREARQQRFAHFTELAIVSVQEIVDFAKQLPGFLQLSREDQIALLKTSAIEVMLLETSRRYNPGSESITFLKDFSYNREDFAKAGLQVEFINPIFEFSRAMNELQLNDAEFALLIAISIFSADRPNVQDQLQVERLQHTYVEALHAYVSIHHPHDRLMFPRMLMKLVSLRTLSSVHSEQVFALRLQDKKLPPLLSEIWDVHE
T1 sequence (P19793 201-462 partner limits assumed): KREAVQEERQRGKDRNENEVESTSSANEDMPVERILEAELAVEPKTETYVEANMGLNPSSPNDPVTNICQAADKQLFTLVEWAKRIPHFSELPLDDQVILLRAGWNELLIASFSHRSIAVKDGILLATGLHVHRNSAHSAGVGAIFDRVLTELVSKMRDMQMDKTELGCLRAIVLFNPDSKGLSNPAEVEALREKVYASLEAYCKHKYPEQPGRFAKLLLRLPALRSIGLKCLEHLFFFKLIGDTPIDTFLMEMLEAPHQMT
Procedure: 8 μl of LXRα reaction solution (0.05 μl of 4 μM His-LXRα and FLAG-RXRα mixed solution, 1.00 μl of 10×PBS (Sigma Chemical), 2.50 μl of 2 M KF (Wako Pure Chemical Industries), 0.10 μl of 10% NP40 (Sigma Chemical), 0.15 μl of anti-His tag antibody (CIS Bio International) and 4.20 μl of H2O) containing the His-LXRα and FLAG-RXRα prepared according to Example 1 were placed in a 384-well assay plate (Greiner Bio-One).
Next, 2 μl of a solution of Compound A (N-(2,2,2-trifluoroethyl)-N-{4-[2,2,2-trifluoro-1-hydroxy-1-(trifluoromethyl)ethyl]phenyl}benzene sulfonamide (Compound 12 described on page 55 of International Publication WO2000/054759) or Compound B (3-chloro-4-(3-(2-propyl-3-trifluoromethyl-6-benz-[4,5]-isooxazoloxy)propylthio)phenylacetic acid (a compound described in Example 20 on page 70 of International Publication WO1997/028137), dissolved to a concentration of 10 μM in dimethyl sulfoxide (hereinafter referred to as “DMSO”), were added to each well of a 384-well assay plate followed by incubating for 1 hour at room temperature.
Next, 10 μl of peptide reaction solution (1.00 μl of 5 μM peptide, 1.00 μl of 10×PBS, 2.50 μl of 2 M KF, 0.10 μl of 10% NP40, 0.20 μl of streptavidin (CIS Bio International) and 5.20 μl of H2O) were added to each well of the 384-well assay plate and incubated for 17 hours at 4° C. The peptide added here was comprising of any of the amino acid sequences of (a) to (g) below, and the amino acid of the N-terminal was biotinylated.
Following completion of incubation, the assay plate was subjected to excitation light at 337 nm using a fluorescent plate reader (Envision, Perkin-Elmer), and fluorescent absorbance at 665 nm and 620 nm was measured to determine the binding capacity between the protein and the peptide.
The value obtained by multiplying 1000 by the value resulting from dividing the measured value at 665 nm when applying excitation light at 337 nm by the measured value at 620 nm was determined. This value was then divided by the value determined by the same method when only DMSO was added without adding LXR ligand (Compound A or Compound B), and this value was then multiplied by 100 and indicated as the percentage relative to the control (% of control) as shown in Table 6.
The value for % of control determined here is the value, represented by a percentage, that indicates the ratio of the increase in the amount of coactivator bound to LXRα that results from adding LXR ligand, and the larger this value, the larger the amount of coactivator that binds to LXRα.
(1) According to the same method as Example 2) (using the following peptides (h) to (m), instead of the peptides (a) to (g) in Example 2), the amount of coactivator bound to the heterodimer LXRα and RXRα were determined.

THP-1 cells = assay: Cholesterol efflux assay; format: cell-based; conditions: compound final concentration 0.1 μM, 24 hours
Procedure: 3×10^5 THP-1 cells (ATCC No.: TIB-202) were disseminated in a 96-well white plate (Costar) followed by the addition of 200 nM Phorbol 12-Myristate 13-Acetate (Sigma) and culturing for 24 hours at 37° C. in a CO2 incubator. […] Following completion of culturing, 100 μl of PBS containing 0.2% bovine serum albumin (hereinafter referred to as “BSA”, (Sigma Chemical)) were added to each well to wash the cells. Next, 100 μl of RPMI 1640 containing Apolipoprotein A1 (hereinafter referred to as “ApoA1”, (Biogenesis)) at a final concentration of 10 μg/ml, or RPMI 1640 not containing ApoA1, were added to each well. […] Following completion of culturing, the plate was centrifuged for 5 minutes at 1,000 rpm and 4° C. 75 μl of medium in the form of the centrifuged supernatant were transferred to a 96-well Luma plate (Packard) and allowed to dry. […] 20 (Packard) were added to each well of the plate containing the washed cells and allowed to stand overnight, followed by measuring the radioactivity of the medium and cells with a scintillation counter (Top Count, Packard). Percent (%) efflux was calculated from the measured values using the calculation formula shown below. % efflux=(Specific radioactivity of medium(CPM)/75×100)/(Specific radioactivity of medium(CPM)+specific radioactivity of cells(CPM))×100 […]

[2] = target: T2, heterodimer comprising LXRβ and RXRα (Homo sapiens, UniProt P55055, DUP175-175); assay: FRET assay of coactivator peptide binding to His-LXRβ/FLAG-RXRα; format: biochemical
T2 construct: made in house; host or cells: Escherichia coli BL21(DE3)
T2 sequence (P55055 with tags, fused parts or gaps DUP175-175): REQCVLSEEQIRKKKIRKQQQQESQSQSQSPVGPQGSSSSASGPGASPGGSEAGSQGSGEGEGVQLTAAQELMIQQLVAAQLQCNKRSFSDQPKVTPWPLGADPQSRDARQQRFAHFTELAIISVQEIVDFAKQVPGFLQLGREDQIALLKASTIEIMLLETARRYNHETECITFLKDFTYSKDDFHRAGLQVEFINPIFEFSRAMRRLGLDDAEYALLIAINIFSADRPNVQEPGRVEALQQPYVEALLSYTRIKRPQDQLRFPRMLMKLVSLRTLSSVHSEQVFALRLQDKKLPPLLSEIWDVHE
T2 sequence (P19793 201-462 partner limits assumed): T1 sequence (P19793 201-462 partner limits assumed)
Procedure: 8 μl of LXRβ reaction solution (0.025 μl of 8 μM His-LXRβ and FLAG-RXRα mixed solution, 1.00 μl of 10×PBS, 2.50 μl of 2 M KF, 0.10 μl of 10% NP40, 0.15 μl of anti-His tag antibody and 4.23 μl of H2O) containing the His-LXRβ and FLAG-RXRα prepared according to Example 1 were placed in a 384-well assay plate (Greiner Bio-One) and measured according to the same method as Example 2 to determine the % of control (Table 6). There was no significant difference observed in the resulting values between Compound A and Compound B.
(2) […]: According to the same method in Example 3) (using the above peptides (h) to (m), instead of peptides (a) to (g) in Example 3), the amount of the coactivator bound to the heterodimer comprising LXRβ and RXRα were determined. There was no significant difference observed in the resulting values between Compound A and Compound B (Table 7).

[3] = Cynomolgus monkey consecutive daily administration study; format: in vivo, cynomolgus monkeys; conditions: for Relative value of LDL Cholesterol in Plasma (% of control group) / Relative value of TG in Plasma (% of control group): male cynomolgus monkeys, force fed, PG/Tween
Procedure: Five to seven year old, male cynomolgus monkeys in groups of 5 animals each were force fed only an administration base (Propylene glycol (Wako Pure Chemical Industries)/Tween 80 (Kao) (volume ratio: 4/1, hereinafter referred to as “PG/Tween”)) (hereinafter referred to as “the control group”), or Compound A or Compound B dissolved in PG/Tween in an amount of 3 mg/kg or 10 mg/kg once a day for 7 days between the hours of 8:00 and 10:00 AM. After fasting for 16 hours starting at 5:00 PM on the 7th day of administration, 1 mL of blood was collected from the cephalic vein with a heparinized syringe followed by centrifuging for 15 minutes at 4° C. and 5000 rpm to obtain plasma.
The levels of LDL cholesterol and triglycerides in the plasma were measured with an auto analyzer (Hitachi Model 7170) followed by calculation of the % of control group (Tables 8 and 9).

[4] = peptide ASC2 NR-1, 2 μl of 10 μM compound solution in DMSO
[5] = peptide ASC2 NR-2, 2 μl of 10 μM compound solution in DMSO
[6] = peptide PGC-1α, 2 μl of 10 μM compound solution in DMSO
[7] = peptide SRC1-2, 2 μl of 10 μM compound solution in DMSO
[8] = peptide SRC1-3, 2 μl of 10 μM compound solution in DMSO
[9] = peptide SRC1-4, 2 μl of 10 μM compound solution in DMSO
[10] = peptide TIF2, 2 μl of 10 μM compound solution in DMSO

LXRα (% of control) ([1]; peptide ACTR NRB3, same method as Example 2): 167 % of control | LXRα (% of control) [1, 4]: 155.8 % of control | LXRα (% of control) [1, 5]: 254.0 % of control | LXRα (% of control) ([1]; peptide DAX1, same method as Example 2): 158 % of control | LXRα (% of control) ([1]; peptide PERC NRB2, same method as Example 2): 127 % of control | LXRα (% of control) [1, 6]: 361.7 % of control | LXRα (% of control) ([1]; peptide PNRC, same method as Example 2): 140 % of control | LXRα (% of control) [1, 7]: 267.0 % of control | LXRα (% of control) [1, 8]: 181.3 % of control | LXRα (% of control) [1, 9]: 207.3 % of control | LXRα (% of control) [1, 10]: 266.7 % of control | LXRα (% of control) ([1]; peptide TIF2 NRB2, same method as Example 2): 268 % of control | LXRα (% of control) ([1]; peptide TRAP220, same method as Example 2): 131 % of control | LXRβ (% of control) ([2]; peptide ACTR NRB3, same method as Example 3): 129 % of control | LXRβ (% of control) [2, 4]: 114.5 % of control | LXRβ (% of control) [2, 5]: 120.4 % of control | LXRβ (% of control) ([2]; peptide DAX1, same method as Example 3): 116 % of control | LXRβ (% of control) ([2]; peptide PERC NRB2, same method as Example 3): 104 % of control | LXRβ (% of control) [2, 6]: 191.0 % of control | LXRβ (% of control) ([2]; peptide PNRC, same method as Example 3): 109 % of control | LXRβ (% of control) [2, 7]: 120.4 % of control | LXRβ (% of control) [2, 8]: 110.6 % of control | LXRβ (% of control) [2, 9]: 154.6 % of control | LXRβ (% of control) [2, 10]: 107.9 % of control | LXRβ (% of control) ([2]; peptide TIF2 NRB2, same method as Example 3): 125 % of control | LXRβ (% of control) ([2]; peptide TRAP220, same method as Example 3): 111 % of control | Relative value of LDL Cholesterol in Plasma (% of control group) ([3]; 3 mg/kg once a day for 7 days): 137% | Relative value of TG in Plasma (% of control group) ([3]; 3 mg/kg once a day for 7 days): 429% | Relative value of LDL Cholesterol in Plasma (% of control group) ([3]; 10 mg/kg once a day for 7 days): 207% | Relative value of TG in Plasma (% of control group) ([3]; 10 mg/kg once a day for 7 days): 661%
SMILES: O=S(=O)(c1ccccc1)N(CC(F)(F)F)c1ccc(C(O)(C(F)(F)F)C(F)(F)F)cc1 [Compound A, N-(2,2,2-trifluoroethyl)-N-{4-[2,2,2-trifluoro-1-hydroxy-1-(trifluoromethyl)ethyl]phenyl}benzenesulfonamide]
effect on amount of coactivator bound to LXRα (result in words) ([1]; Example 2, peptides (a) to (g)): increases the amount of coactivator bound to LXRα | relative cholesterol efflux activity (% efflux, Compound A at 1 μM = 100) (THP-1 cells): 86% | effect on plasma LDL cholesterol and triglyceride concentration (result in words) ([3]; cynomolgus monkeys, 7 days administration): increase LDL cholesterol concentration and triglyceride concentration in the plasma
